In patent publication US9249145B2, “Heterocyclic derivatives of pyrazol-4-yl-pyrrolo[2,3-d]pyrimidines as janus kinase inhibitors” (Incyte Holdings Corporation, priority 2009, dated 2016):
Like-named read-outs stand apart in the source and are kept apart here.

How the values were obtained:
[1] = biological target: T1, human JAK1 (a.a. 837-1142) (Homo sapiens, UniProt P23458); experiment: In vitro JAK kinase assay (HTRF, phosphorylation of biotinylated peptide), JAK1; format: biochemical; conditions: 1 mM ATP, read-out: JAK1 IC50 (nM) @ 1 mM ATP
T1 construct: The catalytic domains of human JAK1 (a.a. 837-1142); His tag (N); made in house; host or cells: insect cells (baculovirus)
Method in brief: (§1)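 His-tagged catalytic domains expressed in baculovirus/insect cells; biotinylated peptide (500 nM) phosphorylation in 50 mM Tris pH 7.8, 100 mM NaCl, 5 mM DTT, 0.01% BSA, 1 h room temperature. ATP at Km (JAK1 90 μM, JAK2 30 μM) or 1 mM. EDTA stop, Eu-Py20/SA-APC HTRF read; IC50.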

[2] = biological target: T2, Jak2 (a.a. 828-1132) (Homo sapiens, UniProt O60674); experiment: In vitro JAK kinase assay (HTRF, phosphorylation of biotinylated peptide), JAK2; format: biochemical; conditions: 1 mM ATP, read-out: JAK2 IC50 (nM) @ 1 mM ATP
T2 construct: Jak2 (a.a. 828-1132); His tag (N); made in house; host or cells: insect cells (baculovirus)
Method in brief: as §1

T2 sequence (O60674 828-1132): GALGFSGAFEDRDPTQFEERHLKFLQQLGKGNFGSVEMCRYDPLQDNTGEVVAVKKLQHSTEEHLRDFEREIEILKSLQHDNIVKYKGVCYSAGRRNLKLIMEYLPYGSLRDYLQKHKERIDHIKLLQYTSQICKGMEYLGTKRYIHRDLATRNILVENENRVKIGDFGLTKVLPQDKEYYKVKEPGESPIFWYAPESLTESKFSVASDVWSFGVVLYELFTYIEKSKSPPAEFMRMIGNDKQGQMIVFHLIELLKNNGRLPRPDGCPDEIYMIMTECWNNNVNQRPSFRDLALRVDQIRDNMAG
T1 sequence (P23458 849-1154): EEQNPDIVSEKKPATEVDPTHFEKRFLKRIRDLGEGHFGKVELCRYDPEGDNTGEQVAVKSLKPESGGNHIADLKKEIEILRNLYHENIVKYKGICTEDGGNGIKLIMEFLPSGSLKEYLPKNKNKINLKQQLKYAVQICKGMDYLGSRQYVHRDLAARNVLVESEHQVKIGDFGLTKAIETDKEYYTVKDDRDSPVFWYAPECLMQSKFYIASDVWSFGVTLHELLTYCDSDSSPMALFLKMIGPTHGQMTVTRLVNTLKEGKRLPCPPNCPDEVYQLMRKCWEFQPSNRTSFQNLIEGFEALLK

SMILES	IC50 ([1]; Examples 12-91) [nM]	IC50 ([2]; Examples 12-91) [nM]	IC50 ([1]; Examples 92-162) [nM]	IC50 ([2]; Examples 92-162) [nM]
N#CCC(CN1CCN(C(=O)c2ccc(C#N)cc2)CC1)n1ccc(-c2ncnc3[nH]ccc23)c1 (stereo not drawn) [Example 88, 4-(4-(2-(3-(7H-pyrrolo[2,3-d]pyrimidin-4-yl)-1H-pyrrol-1-yl)-3-cyanopropyl)piperazine-1-carbonyl)benzonitrile]	10 to 50	> 100	–	–
N#CCC(CN1CCN(C(=O)c2ccc(F)cc2F)CC1)n1ccc(-c2ncnc3[nH]ccc23)c1 (stereo not drawn) [Example 90, 3-(3-(7H-pyrrolo[2,3-d]pyrimidin-4-yl)-1H-pyrrol-1-yl)-4-(4-(2,4-difluorobenzoyl)piperazin-1-yl)butanenitrile]	< 10	< 10	–	–
Cc1cc(S(=O)(=O)N2CCN(CC(C)n3cc(-c4ncnc5[nH]ccc45)cn3)CC2)c(C(F)(F)F)o1 (stereo not drawn) [Example 92, 4-{1-[1-methyl-2-(4-{[5-methyl-2-(trifluoromethyl)-3-furyl]sulfonyl}piperazin-1-yl)ethyl]-1H-pyrazol-4-yl}-7H-pyrrolo[2,3-d]pyrimidine]	–	–	20 to 50	> 100
CC(CN1CCN(S(=O)(=O)c2ccccc2C#N)CC1)n1cc(-c2ncnc3[nH]ccc23)cn1 (stereo not drawn) [Example 94, 2-[(4-{2-[4-(7H-pyrrolo[2,3-d]pyrimidin-4-yl)-1H-pyrazol-1-yl]propyl}piperazin-1-yl)sulfonyl]benzonitrile]	–	–	20 to 50	> 100
CC(CN1CCN(C(=O)c2ccc(F)cc2F)CC1)n1cc(-c2ncnc3[nH]ccc23)cn1 (stereo not drawn) [Example 95, 4-(1-{2-[4-(2,4-difluorobenzoyl)piperazin-1-yl]-1-methylethyl}-1H-pyrazol-4-yl)-7H-pyrrolo[2,3-d]pyrimidine bis(trifluoroacetate)]	–	–	20 to 50	> 100
N#CCC(CN1CCCN(C(=O)c2ccc(O)cc2F)CC1)n1cc(-c2ncnc3[nH]ccc23)cn1 (stereo not drawn) [Example 97, 4-[4-(2-fluoro-4-hydroxybenzoyl)-1,4-diazepan-1-yl]-3-[4-(7H-pyrrolo[2,3-d]pyrimidin-4-yl)-1H-pyrazol-1-yl]butanenitrile bis(trifluoroacetate)]	–	–	20 to 50	> 100
N#CCC(CN1CCCN(C(=O)c2ccc(F)cc2)CC1)n1cc(-c2ncnc3[nH]ccc23)cn1 (stereo not drawn) [Example 98, 4-[4-(4-fluorobenzoyl)-1,4-diazepan-1-yl]-3-[4-(7H-pyrrolo[2,3-d]pyrimidin-4-yl)-1H-pyrazol-1-yl]butanenitrile]	–	–	20 to 50	> 100
N#CCC(CN1CCCN(C(=O)c2ccc(N)cc2F)CC1)n1cc(-c2ncnc3[nH]ccc23)cn1 (stereo not drawn) [Example 104, 4-[4-(4-amino-2-fluorobenzoyl)-1,4-diazepan-1-yl]-3-[4-(7H-pyrrolo[2,3-d]pyrimidin-4-yl)-1H-pyrazol-1-yl]butanenitrile]	–	–	20 to 50	> 100
Cc1cc(Cl)ccc1C(=O)N1CCCN(CC(CC#N)n2cc(-c3ncnc4[nH]ccc34)cn2)CC1 (stereo not drawn) [Example 105, 4-[4-(4-chloro-2-methylbenzoyl)-1,4-diazepan-1-yl]-3-[4-(7H-pyrrolo[2,3-d]pyrimidin-4-yl)-1H-pyrazol-1-yl]butanenitrile]	–	–	20 to 50	> 100
N#CCC(CN1CCCN(S(=O)(=O)c2ccccc2C(F)(F)F)CC1)n1cc(-c2ncnc3[nH]ccc23)cn1 (stereo not drawn) [Example 109, 3-[4-(7H-pyrrolo[2,3-d]pyrimidin-4-yl)-1H-pyrazol-1-yl]-4-(4-{[2-(trifluoromethyl)phenyl]sulfonyl}-1,4-diazepan-1-yl)butanenitrile]	–	–	20 to 50	> 100
COc1ccc(OC)c(S(=O)(=O)N2CCCN(CC(CC#N)n3cc(-c4ncnc5[nH]ccc45)cn3)CC2)c1 (stereo not drawn) [Example 111, 4-{4-[(2,5-dimethoxyphenyl)sulfonyl]-1,4-diazepan-1-yl}-3-[4-(7H-pyrrolo[2,3-d]pyrimidin-4-yl)-1H-pyrazol-1-yl]butanenitrile]	–	–	20 to 50	50 to 100
N#CCC(CN1CCCN(S(=O)(=O)c2ccccc2Oc2ccccc2)CC1)n1cc(-c2ncnc3[nH]ccc23)cn1 (stereo not drawn) [Example 113, 4-{4-[(2-phenoxyphenyl)sulfonyl]-1,4-diazepan-1-yl}-3-[4-(7H-pyrrolo[2,3-d]pyrimidin-4-yl)-1H-pyrazol-1-yl]butanenitrile]	–	–	20 to 50	> 100

The remaining lines, values ahead:

IC50 ([1]; Examples 12-91) [nM]	IC50 ([2]; Examples 12-91) [nM]	IC50 ([1]; Examples 92-162) [nM]	IC50 ([2]; Examples 92-162) [nM]	SMILES
10 to 50	> 100	–	–	N#CCC(CN1CCN(C(=O)c2ncc(C(F)(F)F)cc2F)CC1)n1ccc(-c2ncnc3[nH]ccc23)c1 (stereo not drawn) [Example 89, 3-(3-(7H-pyrrolo[2,3-d]pyrimidin-4-yl)-1H-pyrrol-1-yl)-4-(4-(3-fluoro-5-(trifluoromethyl)picolinoyl)piperazin-1-yl)butanenitrile]
< 10	10 to 50	–	–	N#CCC(CN1CCN(C(=O)c2ccc(C(F)F)cc2F)CC1)n1ccc(-c2ncnc3[nH]ccc23)c1 (stereo not drawn) [Example 91, 3-(3-(7H-pyrrolo[2,3-d]pyrimidin-4-yl)-1H-pyrrol-1-yl)-4-(4-(4-(difluoromethyl)-2-fluorobenzoyl)piperazin-1-yl)butanenitrile]
–	–	20 to 50	> 100	CC(CN1CCN(S(=O)(=O)c2ccc(Cl)s2)CC1)n1cc(-c2ncnc3[nH]ccc23)cn1 (stereo not drawn) [Example 93, 4-[1-(2-{4-[(5-chloro-2-thienyl)sulfonyl]piperazin-1-yl}-1-methylethyl)-1H-pyrazol-4-yl]-7H-pyrrolo[2,3-d]pyrimidine]
–	–	20 to 50	> 100	CC(CN1CCN(S(=O)(=O)c2cccc(F)c2)CC1)n1cc(-c2ncnc3[nH]ccc23)cn1 (stereo not drawn) [Example 96, 4-[1-(2-{4-[(3-fluorophenyl)sulfonyl]piperazin-1-yl}-1-methylethyl)-1H-pyrazol-4-yl]-7H-pyrrolo[2,3-d]pyrimidine bis(trifluoroacetate)]
–	–	20 to 50	50 to 100	N#CCC(CN1CCCN(C(=O)c2ccc(F)cc2F)CC1)n1cc(-c2ncnc3[nH]ccc23)cn1 (stereo not drawn) [Example 99, 4-[4-(2,4-difluorobenzoyl)-1,4-diazepan-1-yl]-3-[4-(7H-pyrrolo[2,3-d]pyrimidin-4-yl)-1H-pyrazol-1-yl]butanenitrile]
–	–	< 20	20 to 50	N#CCC(CN1CCCN(C(=O)c2ccc(Cl)cc2F)CC1)n1cc(-c2ncnc3[nH]ccc23)cn1 (stereo not drawn) [Example 100, 4-[4-(4-chloro-2-fluorobenzoyl)-1,4-diazepan-1-yl]-3-[4-(7H-pyrrolo[2,3-d]pyrimidin-4-yl)-1H-pyrazol-1-yl]butanenitrile]
–	–	20 to 50	> 100	N#CCC(CN1CCCN(C(=O)c2ccccc2F)CC1)n1cc(-c2ncnc3[nH]ccc23)cn1 (stereo not drawn) [Example 101, 4-[4-(2-fluorobenzoyl)-1,4-diazepan-1-yl]-3-[4-(7H-pyrrolo[2,3-d]pyrimidin-4-yl)-1H-pyrazol-1-yl]butanenitrile]
–	–	20 to 50	50 to 100	N#CCC(CN1CCCN(S(=O)(=O)c2ccccc2C#N)CC1)n1cc(-c2ncnc3[nH]ccc23)cn1 (stereo not drawn) [Example 102, 2-[(4-{3-cyano-2-[4-(7H-pyrrolo[2,3-d]pyrimidin-4-yl)-1H-pyrazol-1-yl]propyl}-1,4-diazepan-1-yl)sulfonyl]benzonitrile]
–	–	20 to 50	> 100	N#CCC(CN1CCCN(C(=O)c2ccc(Cl)cc2Cl)CC1)n1cc(-c2ncnc3[nH]ccc23)cn1 (stereo not drawn) [Example 103, 4-[4-(2,4-dichlorobenzoyl)-1,4-diazepan-1-yl]-3-[4-(7H-pyrrolo[2,3-d]pyrimidin-4-yl)-1H-pyrazol-1-yl]butanenitrile]
–	–	< 20	50 to 100	COc1cc(Cl)ccc1C(=O)N1CCCN(CC(CC#N)n2cc(-c3ncnc4[nH]ccc34)cn2)CC1 (stereo not drawn) [Example 106, 4-[4-(4-chloro-2-methoxybenzoyl)-1,4-diazepan-1-yl]-3-[4-(7H-pyrrolo[2,3-d]pyrimidin-4-yl)-1H-pyrazol-1-yl]butanenitrile]
–	–	20 to 50	> 100	N#CCC(CN1CCCN(C(=O)c2ccc(Cl)cc2)CC1)n1cc(-c2ncnc3[nH]ccc23)cn1 (stereo not drawn) [Example 107, 4-[4-(4-chlorobenzoyl)-1,4-diazepan-1-yl]-3-[4-(7H-pyrrolo[2,3-d]pyrimidin-4-yl)-1H-pyrazol-1-yl]butanenitrile]
–	–	< 20	50 to 100	Cc1ccccc1S(=O)(=O)N1CCCN(CC(CC#N)n2cc(-c3ncnc4[nH]ccc34)cn2)CC1 (stereo not drawn) [Example 108, 4-{4-[(2-methylphenyl)sulfonyl]-1,4-diazepan-1-yl}-3-[4-(7H-pyrrolo[2,3-d]pyrimidin-4-yl)-1H-pyrazol-1-yl]butanenitrile]
–	–	20 to 50	> 100	N#CCC(CN1CCCN(S(=O)(=O)c2ccccc2OC(F)(F)F)CC1)n1cc(-c2ncnc3[nH]ccc23)cn1 (stereo not drawn) [Example 110, 3-[4-(7H-pyrrolo[2,3-d]pyrimidin-4-yl)-1H-pyrazol-1-yl]-4-(4-{[2-(trifluoromethoxy)phenyl]sulfonyl}-1,4-diazepan-1-yl)butanenitrile]
–	–	< 20	20 to 50	COc1ccc(Cl)cc1S(=O)(=O)N1CCCN(CC(CC#N)n2cc(-c3ncnc4[nH]ccc34)cn2)CC1 (stereo not drawn) [Example 112]
–	–	20 to 50	50 to 100	COc1ccc(Br)cc1S(=O)(=O)N1CCCN(CC(CC#N)n2cc(-c3ncnc4[nH]ccc34)cn2)CC1 (stereo not drawn) [Example 114, 4-{4-[(5-bromo-2-methoxyphenyl)sulfonyl]-1,4-diazepan-1-yl}-3-[4-(7H-pyrrolo[2,3-d]pyrimidin-4-yl)-1H-pyrazol-1-yl]butanenitrile]
